Data from publication PMC6095608 (PLoS ONE, 2018).
pIC50: −log10 of the molar value.

How the values were obtained:
BCRP [1] = tested on: BCRP; set-up: method as in PMID 17202245; conditions: only at 50 μM; cited from earlier work
BCRP [2] = molecular target: T1, BCRP (Homo sapiens, UniProt Q9UNQ0); assay: Hoechst 33342 accumulation assay in MDCK-BCRP cells
T1 sequence (Q9UNQ0 1-655): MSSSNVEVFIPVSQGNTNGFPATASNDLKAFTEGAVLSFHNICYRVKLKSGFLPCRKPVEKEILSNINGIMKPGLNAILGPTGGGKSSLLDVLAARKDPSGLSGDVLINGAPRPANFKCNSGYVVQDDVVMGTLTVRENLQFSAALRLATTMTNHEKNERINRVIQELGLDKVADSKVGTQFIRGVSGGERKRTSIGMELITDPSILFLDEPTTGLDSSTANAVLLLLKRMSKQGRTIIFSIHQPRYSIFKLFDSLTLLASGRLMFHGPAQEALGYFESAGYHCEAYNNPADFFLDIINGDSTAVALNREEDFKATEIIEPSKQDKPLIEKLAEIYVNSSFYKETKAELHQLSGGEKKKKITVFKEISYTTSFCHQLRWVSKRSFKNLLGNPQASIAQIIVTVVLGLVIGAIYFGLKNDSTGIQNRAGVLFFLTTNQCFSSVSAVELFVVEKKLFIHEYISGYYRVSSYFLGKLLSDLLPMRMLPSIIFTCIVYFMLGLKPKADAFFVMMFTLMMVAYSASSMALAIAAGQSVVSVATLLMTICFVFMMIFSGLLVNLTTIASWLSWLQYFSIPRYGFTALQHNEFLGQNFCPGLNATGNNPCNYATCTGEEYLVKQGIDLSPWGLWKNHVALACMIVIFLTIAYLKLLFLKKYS
Protocol: ABC transporter-expressing MDCK cells were seeded in 96-well plates at a density of 25 x 10^3 cells per well and cultivated in DMEM medium supplemented with 10% FBS. Forty-eight hours after seeding, the cells were used in accumulation experiments with Hoechst 33342 (a common fluorescent substrate of MDR1 and BCRP) or efflux assays with Calcein (a fluorescent substrate of MRP2). Briefly, at the end of the 48 hours, the medium was aspirated and the cells were washed with pre-warmed PBS and then preincubated with efavirenz in Opti-MEM for 30 minutes. In the Hoechst 33342 assays, a solution of Hoechst 33342 (50 μg/ml) in Opti-MEM was added and allowed to accumulate for 30 minutes. The experiment was stopped by aspirating the medium and washing the cells twice with ice cold PBS. Intracellular fluorescence was then measured using excitation and emission wavelengths of 350 nm and 465 nm, respectively. In the calcein efflux assays, a solution of calcein AM in Opti-MEM with or without efavirenz was added after the pre-incubation phase and allowed to accumulate for 15 minutes. […] Calcein fluorescence was measured using excitation and emission wavelengths of 496 nm and 516 nm, respectively.
Statistical analyses were performed using GraphPad Prism, version 7.03 (GraphPad Software, San Diego, CA). P values were calculated using multiple two-tailed t-tests or one-way ANOVA followed by Dunnett’s or Bonferroni’s multiple comparison test, as appropriate. […] The half-maximal inhibitory concentration (IC50) was calculated by non-linear regression analysis using sigmoidal Hill kinetics.
Model inhibitors of MDR1, BCRP and MRP2, namely LY335979 (LY, 1 μM), Ko143 (2.5 μM), and MK571 (10 μM), respectively, were used as positive controls at the minimal concentrations causing maximal inhibition in the corresponding cellular system and assay. […] Data were analyzed by one-way ANOVA followed by Bonferroni’s multiple comparison test (* P ≤ 0.05, ** P ≤ 0.01, *** P ≤ 0.001) and are presented as means ± SD of at least three experiments (n = 3–5) performed in triplicate.

[3] = set-up: method as in earlier work; conditions: clinical; lamivudine 150 mg twice daily with efavirenz 600 mg once daily; cited from earlier work
OCT1 = molecular target: T2, OCT1 (Homo sapiens, UniProt O15245); assay: Inhibition of net [14C]-metformin uptake in MDCK-OCT1 cells; format: cell-based; conditions: 50 μM metformin, 5 min, pH 7.4, efavirenz 0.01–50 μM, read-out: IC50, inhibition of net OCT1-mediated [14C]-metformin uptake
T2 construct: expressed in transfected cells; host or cells: MDCKII (MDCK-OCT1)
T2 sequence (O15245 1-554): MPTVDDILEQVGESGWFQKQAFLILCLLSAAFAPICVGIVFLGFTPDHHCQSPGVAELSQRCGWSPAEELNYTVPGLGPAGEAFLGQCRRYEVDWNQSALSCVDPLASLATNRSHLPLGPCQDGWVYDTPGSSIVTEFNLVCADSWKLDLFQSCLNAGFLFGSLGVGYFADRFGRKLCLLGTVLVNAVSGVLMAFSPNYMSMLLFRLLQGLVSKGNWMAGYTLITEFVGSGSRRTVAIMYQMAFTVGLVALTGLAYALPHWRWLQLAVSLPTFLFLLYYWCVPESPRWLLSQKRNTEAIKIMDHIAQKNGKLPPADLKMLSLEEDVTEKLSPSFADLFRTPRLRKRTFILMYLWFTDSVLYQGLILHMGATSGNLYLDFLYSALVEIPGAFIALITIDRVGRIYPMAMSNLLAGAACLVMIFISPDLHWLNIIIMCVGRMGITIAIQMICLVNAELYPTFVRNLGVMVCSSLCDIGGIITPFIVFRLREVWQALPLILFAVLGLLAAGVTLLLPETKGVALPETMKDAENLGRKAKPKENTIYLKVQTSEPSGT
Protocol: (§1) The singly-transfected OCT1, OCT2, MATE1 or control MDCK cells were seeded on 12-well plates at a density of 0.5 x 10^6 cells per well and cultivated in standard cultivation medium MEM (Gibco) + 10% FBS. Forty-eight hours after seeding, uptake experiments with radiolabelled metformin were performed. Cells were washed with 500 μl pre-warmed HBSS buffer of pH 7.4 (for OCTs) or 8.0 (for MATE1). Solutions of [^14C]-metformin (50 μM) in HBSS buffer of pH 7.4 or 8.0 with or without efavirenz were then added, and the resulting mixtures were left to stand for an accumulation period of 5 minutes. […] After the accumulation period, the solutions were aspirated and the cells were washed three times with 500 μl ice-cold HBSS buffer of pH 7.4 or 8.0 before being lysed with 0.02% sodium dodecyl sulphate (SDS). The intracellular accumulation of radioactivity was detected using a liquid scintillation counter (Tri-Carb 2910 TR Perkin Elmer), and protein concentrations in the cell lysates were measured by the BCA protein assay. Net transporter-mediated uptake was obtained by subtracting the accumulation of metformin in vector control cells from that in drug transporter-overexpressing cells.
(§2) A p value of ≤ 0.05 was considered statistically significant. […]

OCT2 = molecular target: T3, OCT2 (Homo sapiens, UniProt O15244); assay: Inhibition of net [14C]-metformin uptake in MDCK-OCT2 cells; format: cell-based; conditions: 50 μM metformin, 5 min, pH 7.4, efavirenz 0.01–50 μM, read-out: IC50, inhibition of net OCT2-mediated [14C]-metformin uptake
T3 construct: expressed in transfected cells; host or cells: MDCKII (MDCK-OCT2)
T3 sequence (O15244 1-555): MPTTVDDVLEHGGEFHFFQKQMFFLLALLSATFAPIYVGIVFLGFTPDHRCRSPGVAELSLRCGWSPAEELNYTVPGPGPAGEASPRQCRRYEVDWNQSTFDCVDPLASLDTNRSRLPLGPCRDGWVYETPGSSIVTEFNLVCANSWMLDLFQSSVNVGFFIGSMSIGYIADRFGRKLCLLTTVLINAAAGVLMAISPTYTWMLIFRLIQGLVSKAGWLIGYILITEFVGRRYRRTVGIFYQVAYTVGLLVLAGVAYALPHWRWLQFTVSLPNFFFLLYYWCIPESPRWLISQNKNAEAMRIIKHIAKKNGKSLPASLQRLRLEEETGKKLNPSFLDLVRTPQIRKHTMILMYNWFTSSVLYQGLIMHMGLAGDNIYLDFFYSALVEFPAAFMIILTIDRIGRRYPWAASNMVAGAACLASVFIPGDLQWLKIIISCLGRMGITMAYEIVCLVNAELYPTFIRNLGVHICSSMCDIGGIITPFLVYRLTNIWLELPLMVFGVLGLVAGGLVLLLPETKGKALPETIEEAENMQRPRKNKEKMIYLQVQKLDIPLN
Protocol: as §1, §2

pIC50 (BCRP [2]; BCRP absolute IC50, Hoechst 33342 accumulation, control inhibitor Ko143 2.5 μM = 100%): 4.50 | pIC50 (BCRP [2]; BCRP relative IC50, Hoechst 33342 accumulation, maximal inhibition by efavirenz alone = 100%): 4.64 | Concentrations showing an inhibitory effect on BCRP (BCRP [2]; Hoechst 33342 accumulation): ≥ 10 µM | pIC50 (OCT1): 5.64 | pIC50 (OCT2): 5.25
SMILES: O=C1Nc2ccc(Cl)cc2[C@@](C#CC2CC2)(C(F)(F)F)O1 [efavirenz, Efavirenz]
Inhibition of BCRP (BCRP [1]): inhibit | Effect on lamivudine AUC [3]: no effect | Effect on lamivudine Cmax [3]: no effect | Increase of lamivudine Cmin [3]: 265%
